Several values for one entry are separate records, joined by “and”; a condition that tells them apart may be missing. Identical values can stand only once. Toxic doses and inconclusive results are not listed.
Test system: P388 leukemia ip, CD2F1 mice, survival T/C
Test: NCI In Vivo Anticancer Drug Screen. Data for tumor model P388 Leukemia (intraperitoneal) in CD2F1 (CDF1) mice
Details: endpoint: median survival time, higher = longer survival
In short: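 Mice carrying the transplanted tumor received test compound or vehicle. Survival was recorded in each group, and the value is the treated-group measurement divided by that of the vehicle-treated control group.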

[1] = dose: 60.0 mg/kg/injection, schedule: Q01DX005 (ip), vehicle: saline with Tween-80
[2] = dose: 120.0 mg/kg/injection, schedule: Q01DX005 (ip), vehicle: saline with Tween-80
[3] = dose: 240.0 mg/kg/injection, schedule: Q01DX005 (ip), vehicle: saline with Tween-80
[4] = dose: 100.0 mg/kg/injection, schedule: Q04DX002 (ip), vehicle: saline with Tween-80
[5] = dose: 200.0 mg/kg/injection, schedule: Q04DX002 (ip), vehicle: saline with Tween-80
[6] = dose: 400.0 mg/kg/injection, schedule: Q04DX002 (ip), vehicle: saline with Tween-80
[7] = dose: 60.0 mg/kg/injection, schedule: Q01DX005 (ip), vehicle: Klucel (hydroxypropylcellulose) (HPC)
[8] = dose: 120.0 mg/kg/injection, schedule: Q01DX005 (ip), vehicle: Klucel (hydroxypropylcellulose) (HPC)
[9] = dose: 240.0 mg/kg/injection, schedule: Q01DX005 (ip), vehicle: Klucel (hydroxypropylcellulose) (HPC)
[10] = dose: 50.0 mg/kg/injection, schedule: Q01DX009 (ip), vehicle: saline
[11] = dose: 100.0 mg/kg/injection, schedule: Q01DX009 (ip), vehicle: saline
[12] = dose: 200.0 mg/kg/injection, schedule: Q01DX009 (ip), vehicle: saline
[13] = dose: 25.0 mg/kg/injection, schedule: Q01DX005 (ip), vehicle: saline

COC1OC2COC(c3ccc(Cl)cc3)OC2C2OC12 (centres undefined)
T/C (dose: 7.5 mg/kg/injection, schedule: Q04DX002 (ip), vehicle: saline with Tween-80): 102 % of control | T/C (dose: 15.0 mg/kg/injection, schedule: Q04DX002 (ip), vehicle: saline with Tween-80): 101 % of control | T/C (dose: 30.0 mg/kg/injection, schedule: Q04DX002 (ip), vehicle: saline with Tween-80): 102 % of control

COC1=CC(O)(CC(N)=O)c2ccccc2C1=O (centres undefined)
T/C (dose: 3.13 mg/kg/injection, schedule: Q01DX009 (ip), vehicle: distilled water + Tween-80): 99 % of control | T/C (dose: 6.25 mg/kg/injection, schedule: Q01DX009 (ip), vehicle: distilled water + Tween-80): 100 % of control | T/C (dose: 12.5 mg/kg/injection, schedule: Q01DX009 (ip), vehicle: distilled water + Tween-80): 98 % of control | T/C (dose: 25.0 mg/kg/injection, schedule: Q01DX009 (ip), vehicle: distilled water + Tween-80): 102 % of control | T/C (dose: 50.0 mg/kg/injection, schedule: Q01DX009 (ip), vehicle: distilled water + Tween-80): 92 % of control | T/C (dose: 100.0 mg/kg/injection, schedule: Q01DX009 (ip), vehicle: distilled water + Tween-80): 92 % of control

S=C(NC12CC3CC(CC(C3)C1)C2)[NH][Sn]([c]1ccccc1)([c]1ccccc1)[c]1ccccc1
T/C (dose: 0.78 mg/kg/injection, schedule: Q01DX009 (ip), vehicle: saline): 92 % of control | T/C (dose: 1.56 mg/kg/injection, schedule: Q01DX009 (ip), vehicle: saline): 96 % of control | T/C (dose: 3.13 mg/kg/injection, schedule: Q01DX009 (ip), vehicle: saline): 100 % of control | T/C (dose: 12.5 mg/kg/injection, schedule: Q01DX009 (ip), vehicle: saline with Tween-80): 117 % of control

Cc1ccc(S(=O)(=O)N/N=C/c2c(Br)nc3sccn23)cc1
T/C (dose: 100.0 mg/kg/injection, schedule: Q01DX001 (ip), vehicle: Klucel (hydroxypropylcellulose) (HPC)): 106 % of control | T/C (dose: 200.0 mg/kg/injection, schedule: Q01DX001 (ip), vehicle: Klucel (hydroxypropylcellulose) (HPC)): 108 % of control | T/C (dose: 400.0 mg/kg/injection, schedule: Q01DX001 (ip), vehicle: Klucel (hydroxypropylcellulose) (HPC)): 106 % of control

CC(C)C(=O)Nc1ccc(S(=O)(=O)Nc2ccc(N)cc2O)cc1
T/C (dose: 50.0 mg/kg/injection, schedule: Q01DX009 (ip), vehicle: saline with Tween-80): 96 % of control | T/C (dose: 100.0 mg/kg/injection, schedule: Q01DX009 (ip), vehicle: saline with Tween-80): 101 % of control | T/C (dose: 200.0 mg/kg/injection, schedule: Q01DX009 (ip), vehicle: saline with Tween-80): 104 % of control

O=C(O)C12C3CCC(O3)C1(C(=O)O)C1CCC2O1 (centres undefined)
T/C [1]: 94 % of control | T/C [2]: 90 % of control | T/C [3]: 88 % of control

C=CCC(C(=C)Sc1ccccc1)S(=O)(=O)c1ccccc1 (centres undefined)
T/C [4]: 115 % of control | T/C [5]: 109 % of control | T/C [6]: 105 % of control

CCOc1ccccc1NC(=O)NCC(=O)NNC(=O)Nc1ccc(Cl)c([N+](=O)[O-])c1
T/C [1]: 93 % of control | T/C [2]: 98 % of control | T/C [3]: 92 % of control

CC12CC3(C)C(Br)C3CC1O2 (centres undefined)
T/C (dose: 44.5 mg/kg/injection, schedule: Q01DX005 (ip), vehicle: saline with Tween-80): 97 % of control | T/C (dose: 89.0 mg/kg/injection, schedule: Q01DX005 (ip), vehicle: saline with Tween-80): 99 % of control | T/C (dose: 178.0 mg/kg/injection, schedule: Q01DX005 (ip), vehicle: saline with Tween-80): 99 % of control

O=C1C2=C(Nc3cc([N+](=O)[O-])ccc3N2)OC1c1ccccc1 (centres undefined)
T/C [7]: 91 % of control | T/C [8]: 91 % of control | T/C [9]: 99 % of control

CC(=O)OC1CC2CC(O)(C(=O)CO)CC2C2CCC3=CC(=O)CC3C(C)(O)C12 (centres undefined)
T/C [1]: 100 % of control | T/C [2]: 93 % of control | T/C [3]: 93 % of control

Cc1ccc(S(=O)(=O)/C(=C/c2c(-c3ccccc3)c(-c3ccccc3)c3n2CCC3)NC=O)cc1
T/C (dose: 100.0 mg/kg/injection, schedule: Q01DX001 (ip), vehicle: saline with Tween-80): 96 % of control | T/C (dose: 200.0 mg/kg/injection, schedule: Q01DX001 (ip), vehicle: saline with Tween-80): 88 % of control | T/C (dose: 400.0 mg/kg/injection, schedule: Q01DX001 (ip), vehicle: saline with Tween-80): 86 % of control

C=CCN(CC=C)C(=O)Nc1cccc2c(NC(=O)N(CC=C)CC=C)cccc12
T/C [1]: 93 % of control | T/C [2]: 97 % of control | T/C [3]: 97 % of control

COc1cccc(CSCC(=O)O)c1
T/C [10]: 97 % of control | T/C [11]: 102 % of control | T/C [12]: 92 % of control

COC1=C(N=[N+]=[N-])C(=O)c2ncccc2C1=O
T/C (dose: 0.63 mg/kg/injection, schedule: Q01DX009 (ip), vehicle: DMSO): 100 % of control | T/C (dose: 1.25 mg/kg/injection, schedule: Q01DX009 (ip), vehicle: DMSO): 100 % of control | T/C (dose: 1.56 mg/kg/injection, schedule: Q01DX009 (ip), vehicle: saline with Tween-80): 95 % of control | T/C (dose: 2.5 mg/kg/injection, schedule: Q01DX009 (ip), vehicle: DMSO): 107 % of control | T/C (dose: 3.12 mg/kg/injection, schedule: Q01DX009 (ip), vehicle: saline with Tween-80): 98 % of control | T/C (dose: 5.0 mg/kg/injection, schedule: Q01DX009 (ip), vehicle: DMSO): 100 % of control

C[Si](C)(C)Cn1ccc(=O)n(C[Si](C)(C)C)c1=O
T/C (dose: 50.0 mg/kg/injection, schedule: Q01DX005 (ip), vehicle: saline with Tween-80): 107 % of control | T/C (dose: 100.0 mg/kg/injection, schedule: Q01DX005 (ip), vehicle: saline with Tween-80): 101 % of control | T/C (dose: 200.0 mg/kg/injection, schedule: Q01DX005 (ip), vehicle: saline with Tween-80): 107 % of control

CC(=O)NCCCC(=O)O
T/C [12]: 98 % of control

CCCCC1CN1C(=N)OCC (centres undefined)
T/C (dose: 15.0 mg/kg/injection, schedule: Q01DX005 (ip), vehicle: saline with Tween-80): 100 % of control | T/C [13]: 100 % of control | T/C (dose: 30.0 mg/kg/injection, schedule: Q01DX005 (ip), vehicle: saline with Tween-80): 96 % of control | T/C [1]: 101 % of control and 95 % of control

CC1=Nc2nnnn2N=C(C)C1
T/C [13]: 104 % of control | T/C (dose: 50.0 mg/kg/injection, schedule: Q01DX005 (ip), vehicle: saline): 92 % of control | T/C (dose: 100.0 mg/kg/injection, schedule: Q01DX005 (ip), vehicle: saline): 95 % of control

CCOC(=O)Nc1cc(NC(C)/C(=N/O)c2ccccc2)c([N+](=O)[O-])c(N)n1 (centres undefined)
T/C [7]: 157 % of control and 176 % of control | T/C [8]: 166 % of control and 186 % of control | T/C [9]: 174 % of control and 180 % of control

CN(C)c1ccsc(=S)c1
T/C (dose: 6.25 mg/kg/injection, schedule: Q01DX005 (ip), vehicle: Klucel (hydroxypropylcellulose) (HPC)): 102 % of control | T/C (dose: 12.5 mg/kg/injection, schedule: Q01DX005 (ip), vehicle: Klucel (hydroxypropylcellulose) (HPC)): 101 % of control | T/C (dose: 25.0 mg/kg/injection, schedule: Q01DX005 (ip), vehicle: Klucel (hydroxypropylcellulose) (HPC)): 105 % of control | T/C (dose: 50.0 mg/kg/injection, schedule: Q01DX005 (ip), vehicle: Klucel (hydroxypropylcellulose) (HPC)): 98 % of control

CC(=O)C1CCC(=O)N1C(C)=O (centres undefined)
T/C [10]: 100 % of control | T/C [11]: 106 % of control | T/C [12]: 114 % of control

CSCC1(C)OC(c2ccccc2)=Nc2ccccc21 (centres undefined)
T/C [4]: 97 % of control | T/C [5]: 98 % of control | T/C [6]: 106 % of control

C1=C(CC2=C[P+](c3ccccc3)(c3ccccc3)C=C(c3ccccc3)O2)OC(c2ccccc2)=C[P+]1(c1ccccc1)c1ccccc1
T/C (dose: 0.75 mg/kg/injection, schedule: Q01DX005 (ip), vehicle: saline with Tween-80): 115 % of control | T/C (dose: 3.0 mg/kg/injection, schedule: Q01DX005 (ip), vehicle: saline): 124 % of control

Cc1cc(C)nc(NC(N)=NCCc2ccccc2)n1
T/C (dose: 12.5 mg/kg/injection, schedule: Q04DX003 (ip), vehicle: saline with Tween-80): 104 % of control | T/C (dose: 25.0 mg/kg/injection, schedule: Q04DX003 (ip), vehicle: saline with Tween-80): 100 % of control | T/C (dose: 50.0 mg/kg/injection, schedule: Q04DX003 (ip), vehicle: saline with Tween-80): 100 % of control

CC1=CC(=O)C(O)C2(C)C1CC1OC(=O)CC3C(C)C(O)C4(O)OCC13C42 (centres undefined)
T/C (dose: 5.0 mg/kg/injection, schedule: Q01DX009 (ip), vehicle: Klucel (hydroxypropylcellulose) (HPC)): 107 % of control | T/C (dose: 10.0 mg/kg/injection, schedule: Q01DX009 (ip), vehicle: Klucel (hydroxypropylcellulose) (HPC)): 117 % of control | T/C (dose: 20.0 mg/kg/injection, schedule: Q01DX009 (ip), vehicle: Klucel (hydroxypropylcellulose) (HPC)): 123 % of control

From PubChem BioAssay AID330 (DTP/NCI, 2004)
